Laboratory results: patent publication US20090156669A1, “COMBINATION OF ACTIVE INGREDIENTS WITH INSECTICIDAL AND ACARICIDAL PROPERTIES” (Bayer CropScience AG, priority 2006, published 2009)

Test system: Tetranychus urticae
Assay: Tetranychus urticae test (OP-resistant, dip application)
Format: in vivo
Settings: dip application of infested bush beans (Phaseolus vulgaris), OP-resistant spider mites
Procedure: Tetranychus urticae—Test (OP-Resistent, Dip Application)
To produce a suitable preparation of active compound, 1 part by weight of active compound is mixed with the stated amounts of solvent and emulsifier, and the concentrate is diluted with water to the desired concentrations.
Busch beans (Phaseolus vulgaris), which are heavily infected by the greenhouse red spider mite (Tetranychus urticae) are dipped into an active compound preparation of the desired concentration.
After the desired period of time, the kill in % is determined. 100% means that all spider mites have been killed; 0% means that none of the spider mites have been killed.

| Compound | Kill in % after 6 d (100 ppm) | Kill in % after 6 d (0.16 ppm) |
| --- | --- | --- |
| CC1(C)[C@H](/C=C(\Cl)C(F)(F)F)[C@@H]1C(=O)O[C@H](C#N)c1cccc(Oc2ccccc2)c1 [gamma-cyhalothrin] | 65% | – |
| Cc1cc(C)c(C2=C(OC(=O)CC(C)(C)C)C3(CCCC3)OC2=O)c(C)c1 [spiromesifen] | – | 0% |
